Assay results reported in ChEMBL document CHEMBL1201862, “PubChem BioAssay data set” (2004).
Active and inactive are the calls of the source.

What was measured:
Orexin receptor type 2 [1] = biological target: T1, Orexin receptor type 2 (Homo sapiens, UniProt O43614); test: Counterscreen assay for antagonists of the orexin 1 receptor (OX1R; HCRTR1): Fluorescence-based cell-based dose response assay for antagonists of the orexin 2 receptor (OX2R; HCRTR2), run by assay provider.; assay type: functional
T1 sequence (O43614 whole entry): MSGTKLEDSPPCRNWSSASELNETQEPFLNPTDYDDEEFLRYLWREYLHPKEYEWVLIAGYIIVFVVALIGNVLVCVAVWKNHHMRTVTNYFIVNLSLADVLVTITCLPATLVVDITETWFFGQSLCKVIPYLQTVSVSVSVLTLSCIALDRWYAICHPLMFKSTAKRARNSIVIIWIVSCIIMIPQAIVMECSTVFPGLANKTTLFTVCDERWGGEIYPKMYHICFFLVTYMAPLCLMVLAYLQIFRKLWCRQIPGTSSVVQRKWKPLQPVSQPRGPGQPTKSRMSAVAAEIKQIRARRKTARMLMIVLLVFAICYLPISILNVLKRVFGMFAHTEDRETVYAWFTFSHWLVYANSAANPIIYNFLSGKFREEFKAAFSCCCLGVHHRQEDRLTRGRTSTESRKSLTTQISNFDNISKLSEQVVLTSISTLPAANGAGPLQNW

[2] = biological target: T2, Orexin/Hypocretin receptor type 1 (Homo sapiens, UniProt O43613); test: Homogeneous Time Resolved Fluorescence (HTRF)-based cell-based high throughput dose response assay for antagonists of the orexin 1 receptor (OX1R; HCRTR1). [Related pubchem assays (depositor defined):AID434989, AID435008, AID463079, AID485270, AID492963, AID492964, AID492965, AID493232, AID504717, AID504718]; assay type: functional
T2 sequence (O43613 whole entry): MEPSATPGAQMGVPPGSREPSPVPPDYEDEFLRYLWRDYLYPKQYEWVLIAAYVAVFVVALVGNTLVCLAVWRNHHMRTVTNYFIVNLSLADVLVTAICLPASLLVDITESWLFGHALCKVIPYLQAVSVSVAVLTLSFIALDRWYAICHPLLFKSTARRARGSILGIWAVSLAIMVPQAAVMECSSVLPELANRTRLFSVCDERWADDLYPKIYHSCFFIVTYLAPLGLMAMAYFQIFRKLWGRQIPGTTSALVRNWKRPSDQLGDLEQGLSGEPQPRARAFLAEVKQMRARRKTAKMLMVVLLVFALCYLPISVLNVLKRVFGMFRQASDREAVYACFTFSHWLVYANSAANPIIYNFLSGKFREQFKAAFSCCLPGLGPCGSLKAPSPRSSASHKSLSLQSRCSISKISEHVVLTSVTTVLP

CHO-K1 = test: (§1) Counterscreen for antagonists of the orexin 1 receptor (OX1R; HCRTR1): Homogeneous time resolved fluorescence (HTRF)-based cell-based dose response assay to identify antagonists of the parental CHO-K1 cell line. [Related pubchem assays (depositor defined):AID434989, AID435008, AID463079, AID485270, AID492963, AID492964, AID492965, AID493232, AID504699, AID504701]; assay type: functional; conditions: Cricetulus griseus
[3] = biological target: T2, Orexin/Hypocretin receptor type 1; test: Fluorescence-based cell-based high throughput dose response assay for antagonists of the orexin 1 receptor (OX1R; HCRTR1). [Related pubchem assays (depositor defined):AID434989, AID435008, AID463079, AID485270, AID492963, AID492964, AID492965, AID493232, AID504717, AID504718]; assay type: functional
[4] = as §1, with “Fluorescence-based” for “Homogeneous time resolved fluorescence (HTRF)-based”, “cell-based high throughput” for “cell-based”, “CHO” for “CHO-K1”; assay type: functional
Orexin receptor type 2 [5] = biological target: T1, Orexin receptor type 2; test: Counterscreen assay for antagonists of the orexin 1 receptor (OX1R; HCRTR1): Homogeneous Time Resolved Fluorescence (HTRF)-based cell-based dose response assay for antagonists of the orexin 2 receptor (OX2R; HCRTR2), run by assay provider.; assay type: functional
Caspase-3 [6] = biological target: T3, Caspase-3 (Homo sapiens, UniProt P42574); test: SAR Analysis of small molecule inhibitors of Sentrin-specific proteases (SENPs) using a Caspase-3 Selectivity assay. [Related pubchem assays (depositor defined):AID2540, AID2599, AID434973, AID489001]; assay type: functional
T3 sequence (P42574 whole entry): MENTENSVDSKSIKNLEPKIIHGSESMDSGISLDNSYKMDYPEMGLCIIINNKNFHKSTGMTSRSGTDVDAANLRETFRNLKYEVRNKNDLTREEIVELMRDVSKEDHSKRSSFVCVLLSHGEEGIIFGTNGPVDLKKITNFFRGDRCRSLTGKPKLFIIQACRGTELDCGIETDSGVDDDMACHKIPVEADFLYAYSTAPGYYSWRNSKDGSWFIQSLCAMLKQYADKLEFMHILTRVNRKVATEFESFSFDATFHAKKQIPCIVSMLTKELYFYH

[7] = biological target: T4, Sentrin-specific protease 8 (Homo sapiens, UniProt Q96LD8); test: SENP8 protease inhibitors, SAR follow-up, biochemical, luminescence (AID 504501); assay type: functional
T4 sequence (Q96LD8 whole entry): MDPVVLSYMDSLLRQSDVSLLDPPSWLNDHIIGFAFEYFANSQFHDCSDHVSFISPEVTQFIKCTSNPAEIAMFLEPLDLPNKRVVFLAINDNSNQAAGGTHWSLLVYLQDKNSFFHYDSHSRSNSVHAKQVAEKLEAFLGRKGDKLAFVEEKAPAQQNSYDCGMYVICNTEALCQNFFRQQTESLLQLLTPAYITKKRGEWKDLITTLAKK

[8] = biological target: T5, Sentrin-specific protease 7 (Homo sapiens, UniProt Q9BQF6); assay type: functional;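 also: Luminescence-based dose-response confirmation of ultra-high-throughput screening hits, measuring inhibition of SENP7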
T5 sequence (Q9BQF6 whole entry): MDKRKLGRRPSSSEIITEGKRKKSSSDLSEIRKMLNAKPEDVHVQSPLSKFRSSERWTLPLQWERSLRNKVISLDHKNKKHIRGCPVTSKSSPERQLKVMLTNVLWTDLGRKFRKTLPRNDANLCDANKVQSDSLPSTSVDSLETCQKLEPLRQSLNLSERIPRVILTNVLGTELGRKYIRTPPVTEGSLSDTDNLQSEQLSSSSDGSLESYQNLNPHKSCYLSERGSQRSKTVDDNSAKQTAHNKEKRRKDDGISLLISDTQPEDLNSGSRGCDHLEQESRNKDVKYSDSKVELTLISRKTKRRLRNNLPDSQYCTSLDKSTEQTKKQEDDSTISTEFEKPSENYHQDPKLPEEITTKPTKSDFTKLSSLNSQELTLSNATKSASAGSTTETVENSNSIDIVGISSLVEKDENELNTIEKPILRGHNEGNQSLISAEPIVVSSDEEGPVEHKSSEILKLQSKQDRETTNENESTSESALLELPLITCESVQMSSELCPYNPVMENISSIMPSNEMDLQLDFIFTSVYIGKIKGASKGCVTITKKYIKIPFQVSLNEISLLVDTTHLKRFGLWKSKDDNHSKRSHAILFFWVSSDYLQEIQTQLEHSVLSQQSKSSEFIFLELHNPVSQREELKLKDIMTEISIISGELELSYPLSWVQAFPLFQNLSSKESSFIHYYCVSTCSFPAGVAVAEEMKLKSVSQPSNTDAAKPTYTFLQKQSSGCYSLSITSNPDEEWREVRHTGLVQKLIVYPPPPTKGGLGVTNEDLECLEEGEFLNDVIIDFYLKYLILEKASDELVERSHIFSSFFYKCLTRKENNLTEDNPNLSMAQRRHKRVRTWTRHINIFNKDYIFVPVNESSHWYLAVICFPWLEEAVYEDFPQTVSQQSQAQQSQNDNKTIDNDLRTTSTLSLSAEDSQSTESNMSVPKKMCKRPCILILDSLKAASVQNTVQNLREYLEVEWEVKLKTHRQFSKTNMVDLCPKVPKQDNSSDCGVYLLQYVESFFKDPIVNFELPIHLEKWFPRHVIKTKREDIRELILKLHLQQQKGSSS

[9] = biological target: T5, Sentrin-specific protease 7; test: SENP7 protease inhibitors, SAR follow-up, biochemical, luminescence (AID 504497); assay type: functional
HeLa = test: HeLa cell cytotoxicity, dose response, cytotoxicity control for MITF activator project, CellTiter-Glo luminescence, cherry-pick samples (AID 540259); assay type: functional, cell-based; conditions: Homo sapiens
[10] = biological target: T6, Sentrin-specific protease 6 (Homo sapiens, UniProt Q9GZR1); assay type: functional
T6 sequence (Q9GZR1 whole entry): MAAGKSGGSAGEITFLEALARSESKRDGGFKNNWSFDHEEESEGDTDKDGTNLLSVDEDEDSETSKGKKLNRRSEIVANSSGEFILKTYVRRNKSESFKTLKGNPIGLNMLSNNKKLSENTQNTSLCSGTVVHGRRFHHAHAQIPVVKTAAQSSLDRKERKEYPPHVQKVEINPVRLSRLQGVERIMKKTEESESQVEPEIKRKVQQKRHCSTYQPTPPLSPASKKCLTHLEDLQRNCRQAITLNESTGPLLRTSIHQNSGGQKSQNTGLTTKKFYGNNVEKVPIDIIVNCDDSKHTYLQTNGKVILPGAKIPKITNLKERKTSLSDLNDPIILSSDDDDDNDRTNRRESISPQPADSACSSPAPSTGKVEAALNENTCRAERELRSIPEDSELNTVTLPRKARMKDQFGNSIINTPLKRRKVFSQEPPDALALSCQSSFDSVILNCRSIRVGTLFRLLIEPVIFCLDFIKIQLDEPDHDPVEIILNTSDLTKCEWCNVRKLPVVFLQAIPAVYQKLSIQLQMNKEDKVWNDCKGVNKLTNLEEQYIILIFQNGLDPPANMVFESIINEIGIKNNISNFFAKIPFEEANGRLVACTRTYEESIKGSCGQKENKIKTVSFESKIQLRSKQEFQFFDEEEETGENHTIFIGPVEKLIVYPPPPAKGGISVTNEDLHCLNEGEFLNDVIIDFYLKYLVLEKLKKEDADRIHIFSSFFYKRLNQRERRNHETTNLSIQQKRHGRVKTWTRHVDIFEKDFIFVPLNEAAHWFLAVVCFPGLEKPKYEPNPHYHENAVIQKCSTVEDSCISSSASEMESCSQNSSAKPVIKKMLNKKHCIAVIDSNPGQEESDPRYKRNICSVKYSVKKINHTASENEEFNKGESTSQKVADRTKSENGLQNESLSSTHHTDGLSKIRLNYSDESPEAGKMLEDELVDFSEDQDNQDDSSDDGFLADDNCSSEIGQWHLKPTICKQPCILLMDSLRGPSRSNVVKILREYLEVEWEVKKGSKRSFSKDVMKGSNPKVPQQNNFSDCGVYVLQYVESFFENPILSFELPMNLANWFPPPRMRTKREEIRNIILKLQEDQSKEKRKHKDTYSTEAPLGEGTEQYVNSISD

[11] = biological target: T6, Sentrin-specific protease 6; test: SAR Analysis of small molecule inhibitors of Sentrin-specific protease 6 (SENP6) using a Luminescent assay. [Related pubchem assays (depositor defined):AID2582, AID2599]; assay type: functional
Caspase-3 [12] = biological target: T3, Caspase-3; assay type: functional
[13] = biological target: T4, Sentrin-specific protease 8; assay type: functional

Row | Structure (SMILES) | IC50 (Orexin receptor type 2 [1]) | IC50 [2] | IC50 (CHO-K1) | IC50 [3] | IC50 [4] | IC50 (Orexin receptor type 2 [5]) | IC50 (Caspase-3 [6]) | IC50 [7] | IC50 [8] | IC50 [9] | AC50 (HeLa) | IC50 [10] | IC50 [11] | IC50 (Caspase-3 [12]) | IC50 [13]
1 | C=CCSC1=C(C#N)C(c2ccccc2Cl)C(C(=O)c2cccs2)C(O)(C(F)(F)F)N1 (stereo unspecified) | 10.3 µM (inactive) | 405 nM (active) | > 66.2 µM (inactive) | 1.62 µM (active) | 25 µM (inactive) | 15.2 µM (inactive) | – | – | – | – | – | – | – | – | –
2 | c1ccc(N2CCN(c3ncnc4c3oc3ccccc34)CC2)cc1 | > 88.8 µM (inactive) | 4710 nM (active) | > 66.3 µM (inactive) | 12.4 µM (inactive) | 17.7 µM (inactive) | > 50 µM (inactive) | – | – | – | – | – | – | – | – | –
3 | Fc1ccccc1COc1ccc(C(=S)N2CCCC2)cc1 | – | – | – | – | – | – | 742 nM (active) | 1.55 µM (active) | 10.9 µM (active) | 1.64 µM (active) | 162 µM (active) | 17.1 µM (active) | 1.17 µM (active) | 9.99 µM (active) | 3.21 µM (active)
